Consider three molecules from ChEMBL document CHEMBL1131753, “Selective binding of bryostatin analogues to the cysteine rich domains of protein kinase C isozymes” (Bioorg Med Chem Lett, 1999).

Structures are written as SMILES.

For assay [1], the target named is T1, Protein kinase C delta type (Homo sapiens, UniProt Q05655). The experiment in a line: Displacement of [3H]PDBu from protein kinase C delta C1a domain. A general note: Displacement assays read how much labelled ligand stays bound in the presence of the test substance.
T1 sequence (Q05655 whole entry, the tested form may be a part): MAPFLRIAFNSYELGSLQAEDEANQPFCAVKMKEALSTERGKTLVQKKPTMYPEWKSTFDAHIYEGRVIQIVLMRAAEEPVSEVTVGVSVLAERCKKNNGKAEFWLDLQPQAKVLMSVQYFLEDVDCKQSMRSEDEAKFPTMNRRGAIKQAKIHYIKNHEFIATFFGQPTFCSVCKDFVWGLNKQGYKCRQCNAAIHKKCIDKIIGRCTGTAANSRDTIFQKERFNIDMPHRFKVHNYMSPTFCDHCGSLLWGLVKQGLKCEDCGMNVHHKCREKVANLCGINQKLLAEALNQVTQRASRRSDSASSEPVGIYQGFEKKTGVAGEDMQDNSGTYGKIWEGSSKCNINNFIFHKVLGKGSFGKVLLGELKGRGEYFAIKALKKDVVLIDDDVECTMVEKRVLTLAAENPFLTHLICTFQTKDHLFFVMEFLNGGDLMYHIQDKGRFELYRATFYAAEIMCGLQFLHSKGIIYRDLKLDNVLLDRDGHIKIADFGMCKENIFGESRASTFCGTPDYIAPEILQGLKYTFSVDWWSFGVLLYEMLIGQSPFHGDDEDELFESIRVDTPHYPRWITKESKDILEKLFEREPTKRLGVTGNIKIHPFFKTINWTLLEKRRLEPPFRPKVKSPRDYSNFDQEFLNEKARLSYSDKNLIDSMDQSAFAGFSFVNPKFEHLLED
The target in assay [2] is Protein kinase C beta type (Homo sapiens, UniProt P05771). The assay is described as follows: Displacement of [3H]PDBu from protein kinase C beta C1b domain.
Chain of Protein kinase C beta type (P05771 whole entry, the tested form may be a part): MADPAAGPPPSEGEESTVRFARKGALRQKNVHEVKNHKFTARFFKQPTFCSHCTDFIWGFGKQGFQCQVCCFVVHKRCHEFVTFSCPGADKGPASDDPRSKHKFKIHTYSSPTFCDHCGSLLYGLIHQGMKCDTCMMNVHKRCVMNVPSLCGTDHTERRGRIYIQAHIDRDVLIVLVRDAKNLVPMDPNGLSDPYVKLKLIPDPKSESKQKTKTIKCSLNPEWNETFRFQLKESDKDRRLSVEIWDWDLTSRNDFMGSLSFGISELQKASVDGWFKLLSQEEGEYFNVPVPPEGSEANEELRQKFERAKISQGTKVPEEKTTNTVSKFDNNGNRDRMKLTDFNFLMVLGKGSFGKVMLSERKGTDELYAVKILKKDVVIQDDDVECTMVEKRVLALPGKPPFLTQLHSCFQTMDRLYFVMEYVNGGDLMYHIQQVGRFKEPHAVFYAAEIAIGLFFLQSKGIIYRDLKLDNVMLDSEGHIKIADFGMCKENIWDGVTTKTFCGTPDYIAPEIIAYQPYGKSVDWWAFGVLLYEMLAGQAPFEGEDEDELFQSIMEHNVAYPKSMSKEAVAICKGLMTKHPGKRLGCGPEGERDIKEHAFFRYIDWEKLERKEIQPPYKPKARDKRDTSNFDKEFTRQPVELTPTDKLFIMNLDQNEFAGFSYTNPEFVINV
The target in assay [3] is T1, Protein kinase C delta type. The experiment in a line: Displacement of [3H]PDBu from protein kinase C delta C1b domain.
For assay [4], the target named is T2, Protein kinase C gamma type (Homo sapiens, UniProt P05129). The assay is described as follows: Displacement of [3H]-PDBu from protein kinase C gamma C1a domain.
The target of assay [5] is T2, Protein kinase C gamma type. The assay is described as follows: Displacement of [3H]PDBu from protein kinase C gamma C1b domain.
The target of assay [6] is T3, Protein kinase C epsilon type (Homo sapiens, UniProt Q02156).
T3 sequence (Q02156 whole entry): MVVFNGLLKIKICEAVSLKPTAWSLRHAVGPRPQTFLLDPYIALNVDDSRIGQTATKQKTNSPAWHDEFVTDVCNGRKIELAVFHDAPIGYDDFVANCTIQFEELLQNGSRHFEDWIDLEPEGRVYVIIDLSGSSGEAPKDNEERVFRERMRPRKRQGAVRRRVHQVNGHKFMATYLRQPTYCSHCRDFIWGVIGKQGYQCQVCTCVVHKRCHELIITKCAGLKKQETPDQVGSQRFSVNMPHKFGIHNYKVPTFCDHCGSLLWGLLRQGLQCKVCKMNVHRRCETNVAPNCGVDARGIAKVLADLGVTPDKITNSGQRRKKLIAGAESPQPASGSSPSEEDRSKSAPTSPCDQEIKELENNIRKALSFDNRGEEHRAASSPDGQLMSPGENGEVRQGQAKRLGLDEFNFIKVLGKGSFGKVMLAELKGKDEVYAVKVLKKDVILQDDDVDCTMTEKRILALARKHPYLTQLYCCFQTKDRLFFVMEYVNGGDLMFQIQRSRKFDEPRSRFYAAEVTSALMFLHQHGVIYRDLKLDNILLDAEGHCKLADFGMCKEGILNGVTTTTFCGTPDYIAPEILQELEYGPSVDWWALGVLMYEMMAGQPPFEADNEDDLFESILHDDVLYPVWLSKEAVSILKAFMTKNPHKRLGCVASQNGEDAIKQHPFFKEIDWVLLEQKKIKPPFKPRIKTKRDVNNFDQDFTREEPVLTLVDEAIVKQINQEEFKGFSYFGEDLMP
The assay is described as follows: Displacement of [3H]PDBu from protein kinase C epsilon C1b domain.

The target of assay [7] is Protein kinase C eta type (Homo sapiens, UniProt P24723). The assay is described as follows: Displacement of [3H]PDBu from protein kinase C eta C1b domain.
Chain of Protein kinase C eta type (P24723 whole entry, the tested form may be a part): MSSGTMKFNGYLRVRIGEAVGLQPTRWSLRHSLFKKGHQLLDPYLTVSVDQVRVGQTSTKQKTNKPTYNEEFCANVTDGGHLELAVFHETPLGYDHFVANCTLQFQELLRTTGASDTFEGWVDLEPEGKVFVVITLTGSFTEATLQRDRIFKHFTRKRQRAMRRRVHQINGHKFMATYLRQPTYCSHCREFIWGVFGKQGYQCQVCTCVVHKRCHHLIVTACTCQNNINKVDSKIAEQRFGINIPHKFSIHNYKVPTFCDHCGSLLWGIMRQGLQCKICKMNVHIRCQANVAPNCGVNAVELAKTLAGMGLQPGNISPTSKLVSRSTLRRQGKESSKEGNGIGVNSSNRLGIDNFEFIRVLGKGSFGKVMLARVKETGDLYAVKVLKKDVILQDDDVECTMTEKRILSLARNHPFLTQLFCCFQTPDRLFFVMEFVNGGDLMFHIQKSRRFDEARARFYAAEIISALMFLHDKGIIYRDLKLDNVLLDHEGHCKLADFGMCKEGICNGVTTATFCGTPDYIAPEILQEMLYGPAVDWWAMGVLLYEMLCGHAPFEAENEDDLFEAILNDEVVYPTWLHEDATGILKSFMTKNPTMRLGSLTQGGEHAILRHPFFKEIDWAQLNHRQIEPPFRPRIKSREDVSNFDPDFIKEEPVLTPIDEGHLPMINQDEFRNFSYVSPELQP
The target of assay [8] is Protein kinase C theta type (Homo sapiens, UniProt Q04759). The assay is described as follows: Displacement of [3H]PDBu from protein kinase C theta-C1B domain.
Chain of Protein kinase C theta type (Q04759 whole entry, the tested form may be a part): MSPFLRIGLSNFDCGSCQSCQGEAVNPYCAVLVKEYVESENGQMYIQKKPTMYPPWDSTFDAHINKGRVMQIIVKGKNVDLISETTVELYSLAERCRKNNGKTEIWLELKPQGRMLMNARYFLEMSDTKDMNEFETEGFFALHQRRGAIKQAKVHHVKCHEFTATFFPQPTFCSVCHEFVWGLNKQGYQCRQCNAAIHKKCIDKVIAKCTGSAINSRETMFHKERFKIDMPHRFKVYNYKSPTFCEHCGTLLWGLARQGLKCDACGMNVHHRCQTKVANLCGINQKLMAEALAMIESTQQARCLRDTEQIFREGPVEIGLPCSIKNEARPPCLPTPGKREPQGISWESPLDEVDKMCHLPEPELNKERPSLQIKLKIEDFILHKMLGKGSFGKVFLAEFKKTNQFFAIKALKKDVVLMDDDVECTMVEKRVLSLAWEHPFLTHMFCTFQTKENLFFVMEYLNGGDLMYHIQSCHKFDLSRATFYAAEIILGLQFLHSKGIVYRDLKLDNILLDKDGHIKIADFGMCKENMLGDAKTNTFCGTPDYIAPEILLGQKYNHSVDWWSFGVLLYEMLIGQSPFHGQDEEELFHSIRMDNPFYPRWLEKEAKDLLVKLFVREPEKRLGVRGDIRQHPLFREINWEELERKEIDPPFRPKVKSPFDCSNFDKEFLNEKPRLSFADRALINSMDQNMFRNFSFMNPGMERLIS
Assay [9] deals with Protein kinase C alpha type (Homo sapiens, UniProt P17252). The experiment in a line: Displacement of [3H]PDBu from protein kinase C alpha C1b domain.

With `CCCCCCCC(=O)O[C@H]1/C(=C/C(=O)OC)CC2C[C@H]([C@@H](C)O)OC(=O)C[C@H](O)CCO[C@H](C(C)(C)C)C[C@@H]3CCO[C@H](/C=C/C(C)(C)[C@]1(O)O2)O3`, the Ki (as a rule, the dissociation constant of the complex between target and ligand, obtained from inhibition or displacement) in [1] is 85.4 nM; in assay [2], 36.4 nM; in [3], 6.3 nM; in assay [4], greater than 500 nM; in [5] it was greater than 500 nM; in assay [6], 55 nM. Also, the Ki in [7] was 70.2 nM; in [8], 24.1 nM; in [9], greater than 500 nM.
Take `CCCCCCCC(=O)O[C@H]1/C(=C/C(=O)OC)CC2C[C@H]([C@@H](C)O)OC(=O)C[C@@H](O)C[C@@H]3CCC[C@H](C[C@@H]4CCO[C@H](/C=C/C(C)(C)[C@]1(O)O2)O4)O3`: the Ki in [1] was 494 nM; in [2], 280 nM; in assay [3], 64.2 nM; in [4] it was greater than 500 nM; in [5], greater than 500 nM; in assay [6] it was 490 nM. The values for the Ki in assay [7], in [8] and in assay [9] were greater than 500 nM, 147 nM and greater than 500 nM, respectively.
For `CCCCCCCC(=O)O[C@H]1/C(=C/C(=O)OC)CC2C[C@H]([C@@H](C)O)OC(=O)C[C@H](O)C[C@@H]3CCC[C@H](C[C@@H]4CCO[C@H](/C=C/C(C)(C)[C@]1(O)O2)O4)O3`, the Ki in [1] was 65.9 nM; in assay [2], 13.4 nM; in [3], 2.5 nM; in assay [4] it was greater than 500 nM; in assay [5] it was greater than 500 nM; in assay [6], 17.9 nM. In addition, the Ki came out at 23.5 nM in assay [7], 6.6 nM in [8] and 126 nM in assay [9].
